One experiment has as its target T1, pSTAT3 (pY705-STAT3) (Homo sapiens, UniProt P40763).
T1 construct: host or cells: cryopreserved PBMC
The experiment in a line: MSD-pSTAT-PBMC Assay (pSTAT3, IL-6 stimulated). It counts as cell-based.
Settings: not given
The method, boiled down:
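Human PBMCs (50,000 cells/well for STAT3, 25,000 for STAT6) treated with compound 3 h, then stimulated 10 min with 10 ng/mL IL-6 or 1 ng/mL IL-4. Lysate pSTAT3 (pY705) or pSTAT6 (pY641) measured by MSD sandwich electrochemiluminescence. Signal minus unstimulated, normalized to DMSO; IC50 by variable-slope nonlinear regression.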
T1 sequence (P40763 whole entry): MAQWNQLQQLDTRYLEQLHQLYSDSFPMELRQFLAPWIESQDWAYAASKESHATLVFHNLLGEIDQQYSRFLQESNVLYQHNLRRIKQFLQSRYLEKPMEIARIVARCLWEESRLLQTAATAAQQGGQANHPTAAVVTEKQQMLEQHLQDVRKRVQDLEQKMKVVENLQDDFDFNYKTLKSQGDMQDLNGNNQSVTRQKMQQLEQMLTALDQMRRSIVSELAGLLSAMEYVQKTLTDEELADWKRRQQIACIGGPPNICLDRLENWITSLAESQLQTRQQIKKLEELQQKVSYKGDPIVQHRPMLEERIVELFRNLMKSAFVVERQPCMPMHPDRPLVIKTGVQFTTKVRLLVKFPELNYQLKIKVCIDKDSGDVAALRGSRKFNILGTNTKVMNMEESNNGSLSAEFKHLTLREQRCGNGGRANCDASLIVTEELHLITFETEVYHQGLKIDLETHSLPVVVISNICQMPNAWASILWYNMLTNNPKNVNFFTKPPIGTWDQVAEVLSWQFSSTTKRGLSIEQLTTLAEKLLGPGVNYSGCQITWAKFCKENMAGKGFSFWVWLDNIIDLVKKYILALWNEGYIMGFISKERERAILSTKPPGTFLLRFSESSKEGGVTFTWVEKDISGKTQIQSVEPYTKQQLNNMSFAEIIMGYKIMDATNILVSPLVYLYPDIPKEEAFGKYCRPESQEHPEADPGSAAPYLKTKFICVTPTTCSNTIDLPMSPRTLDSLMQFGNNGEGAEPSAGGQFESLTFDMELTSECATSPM
Take `CCCOC(=O)[C@H](C)NP(=O)(Oc1ccccc1)C(F)c1ccc2sc(C(=O)N[C@H]3C[C@@H]4C[C@@H]4C[C@H]4CC[C@@H](C(=O)N5CC(c6cc(C(F)F)on6)C5)N4C3=O)cc2c1` (stereo partly drawn) [Compound 381, propyl(((2-(((3S,6S,7aS,8aR,9aR)-3-(3-(5-(difluoromethyl)isoxazol-3-yl)azetidine-1-carbonyl)-5-oxodecahydro-1H-cyclopropa[d]pyrrolo[1,2-a]azocin-6-yl)carbamoyl)benzo[b]thiophen-5-yl)fluoromethyl)(phenoxy)phosphoryl)-L-alaninate]: the IC50 is < 100 nM.
On the same count and under the same terms, the result for `CCCOC(=O)[C@H](C)NP(=O)(Oc1ccccc1)C(F)c1ccc2sc(C(=O)N[C@H]3C[C@@H]4C[C@@H]4C[C@H]4CC[C@@H](C(=O)N[C@H]5CN(C(N)=O)C[C@@H]5F)N4C3=O)cc2c1` (stereo partly drawn) [Compound 382, propyl(((2-(((3S,6S,7aS,8aR,9aR)-3-(((3S,4S)-1-carbamoyl-4-fluoropyrrolidin-3-yl)carbamoyl)-5-oxodecahydro-1H-cyclopropa[d]pyrrolo[1,2-a]azocin-6-yl)carbamoyl)benzo[b]thiophen-5-yl)fluoromethyl)(phenoxy)phosphoryl)-L-alaninate] reads 100 to 1000 nM; that for `CCCOC(=O)[C@H](C)NP(=O)(Cc1ccc2sc(C(=O)N[C@H]3C[C@H]4C[C@H]4C[C@H]4CC[C@@H](C(=O)N5CC(c6cnccc6CC)C5)N4C3=O)cc2c1)Oc1ccccc1` (stereo partly drawn) [Compound 392, propyl(((2-(((3S,6S,7aR,8aS,9aR)-3-(3-(4-ethylpyridin-3-yl)azetidine-1-carbonyl)-5-oxodecahydro-1H-cyclopropa[d]pyrrolo[1,2-a]azocin-6-yl)carbamoyl)benzo[b]thiophen-5-yl)methyl)(phenoxy)phosphoryl)-L-alaninate], < 100 nM.
Same read-out and setting: the result for `CCCOC(=O)[C@H](C)N[P@](=O)(Oc1ccccc1)[C@H](F)c1ccc2sc(C(=O)N[C@H]3C[C@H]4C[C@H]4C[C@H]4CC[C@@H](C(=O)N5CC(c6cnccc6N6CCOCC6)C5)N4C3=O)cc2c1` [Compound 395, propyl((R)-((S)-fluoro(2-(((3S,6S,7aR,8aS,9aR)-3-(3-(4-morpholinopyridin-3-yl)azetidine-1-carbonyl)-5-oxodecahydro-1H-cyclopropa[d]pyrrolo[1,2-a]azocin-6-yl)carbamoyl)benzo[b]thiophen-5-yl)methyl)(phenoxy)phosphoryl)-L-alaninate] reads < 100 nM; that for `CCCOC(=O)[C@H](C)N[P@@](=O)(Oc1ccccc1)[C@H](F)c1ccc2sc(C(=O)N[C@H]3C[C@H]4C[C@H]4C[C@H]4CC[C@@H](C(=O)N5CC(c6cnccc6N6CCOCC6)C5)N4C3=O)cc2c1` [Compound 396, propyl((S)-((S)-fluoro(2-(((3S,6S,7aR,8aS,9aR)-3-(3-(4-morpholinopyridin-3-yl)azetidine-1-carbonyl)-5-oxodecahydro-1H-cyclopropa[d]pyrrolo[1,2-a]azocin-6-yl)carbamoyl)benzo[b]thiophen-5-yl)methyl)(phenoxy)phosphoryl)-L-alaninate], < 100 nM; that for `CCCOC(=O)[C@H](C)NP(=O)(Cc1ccc2sc(C(=O)N[C@H]3C[C@H]4C[C@H]4C[C@H]4CC[C@@H](C(=O)N5CC(c6cnccc6N(C)C)C5)N4C3=O)cc2c1)Oc1ccccc1` (stereo partly drawn) [Compound 397, propyl(((2-(((3S,6S,7aR,8aS,9aR)-3-(3-(4-(dimethylamino)pyridin-3-yl)azetidine-1-carbonyl)-5-oxodecahydro-1H-cyclopropa[d]pyrrolo[1,2-a]azocin-6-yl)carbamoyl)benzo[b]thiophen-5-yl)methyl)(phenoxy)phosphoryl)-L-alaninate], < 100 nM.
Still for that read-out and setting: the result for `CCCOC(=O)[C@H](C)NP(=O)(Oc1ccccc1)C(F)c1ccc2sc(C(=O)N[C@H]3C[C@@H]4C[C@@H]4C[C@H]4CC[C@@H](C(=O)N5CC(c6cncnc6N6CCC6)C5)N4C3=O)cc2c1` (stereo partly drawn) [Compound 412, propyl(((S)-(2-(((3S,6S,7aS,8aR,9aR)-3-(3-(4-(azetidin-1-yl)pyrimidin-5-yl)azetidine-1-carbonyl)-5-oxodecahydro-1H-cyclopropa[d]pyrrolo[1,2-a]azocin-6-yl)carbamoyl)benzo[b]thiophen-5-yl)fluoromethyl)(phenoxy)phosphoryl)-L-alaninate] reads < 100 nM.
Regarding `CCCOC(=O)[C@H](C)NP(=O)(Oc1ccccc1)[C@H](F)c1ccc2sc(C(=O)N[C@H]3C[C@@H]4C[C@@H]4C[C@H]4CC[C@@H](C(=O)N5CC(c6cnccc6N6CCOCC6)C5)N4C3=O)cc2c1` (stereo partly drawn) [Compound 413, propyl(((S)-fluoro(2-(((3S,6S,7aS,8aR,9aR)-3-(3-(4-morpholinopyridin-3-yl)azetidine-1-carbonyl)-5-oxodecahydro-1H-cyclopropa[d]pyrrolo[1,2-a]azocin-6-yl)carbamoyl)benzo[b]thiophen-5-yl)methyl)(phenoxy)phosphoryl)-L-alaninate], the IC50 is < 100 nM.
On to `CCCOC(=O)[C@H](C)NP(=O)(Oc1ccccc1)[C@H](F)c1ccc2sc(C(=O)N[C@H]3C[C@@H]4C[C@@H]4C[C@H]4CC[C@@H](C(=O)N5CC(c6cnccc6N6CC[C@H]6COC)C5)N4C3=O)cc2c1` (stereo partly drawn) [Compound 416, propyl(((S)-fluoro(2-(((3S,6S,7aS,8aR,9aR)-3-(3-(4-((S)-2-(methoxymethyl)azetidin-1-yl)pyridin-3-yl)azetidine-1-carbonyl)-5-oxodecahydro-1H-cyclopropa[d]pyrrolo[1,2-a]azocin-6-yl)carbamoyl)benzo[b]thiophen-5-yl)methyl)(phenoxy)phosphoryl)-L-alaninate], for which the IC50 is < 100 nM.
The same measure, in the same setting: the result for `CCCOC(=O)[C@H](C)N[P@](=O)(Oc1ccccc1)C(F)c1ccc2sc(C(=O)N[C@H]3C[C@@H]4C[C@@H]4C[C@H]4CC[C@@H](C(=O)N5CC(c6cnccc6N(C)C)C5)N4C3=O)cc2c1` (stereo partly drawn) [Compound 418, propyl((R)-((S)-(2-(((3S,6S,7aS,8aR,9aR)-3-(3-(4-(dimethylamino)pyridin-3-yl)azetidine-1-carbonyl)-5-oxodecahydro-1H-cyclopropa[d]pyrrolo[1,2-a]azocin-6-yl)carbamoyl)benzo[b]thiophen-5-yl)fluoromethyl)(phenoxy)phosphoryl)-L-alaninate] reads < 100 nM.

Staying with this experiment, now noted: PBMC, compound 3 hrs, then 10 ng/mL IL-6 for 10 min; MSD pY705-STAT3; read-out: pSTAT3.
Turning to `CCCOC(=O)[C@H](C)NP(=O)(Oc1ccccc1)C(F)c1ccc2sc(C(=O)N[C@H]3C[C@@H]4C[C@@H]4C[C@H]4CC[C@@H](C(=O)N5CC(c6cc(OC)no6)C5)N4C3=O)cc2c1` (stereo partly drawn) [Compound 362, propyl ((fluoro(2-(((3S,6S,7aS,8aR,9aR)-3-(3-(3-methoxyisoxazol-5-yl)azetidine-1-carbonyl)-5-oxodecahydro-1H-cyclopropa[d]pyrrolo[1,2-a]azocin-6-yl)carbamoyl)benzo[b]thiophen-5-yl)methyl)(phenoxy)phosphoryl)-L-alaninate], the IC50 is < 100 nM.
Still for that read-out and setting: the result for `CCCOC(=O)[C@H](C)NP(=O)(Oc1ccccc1)C(F)c1ccc2sc(C(=O)N[C@H]3C[C@@H]4C[C@@H]4C[C@H]4CC[C@@H](C(=O)N5CC(CS(C)(=O)=O)C5)N4C3=O)cc2c1` (stereo partly drawn) [Compound 363, propyl ((fluoro(2-(((3S,6S,7aS,8aR,9aR)-3-(3-((methylsulfonyl)methyl)azetidine-1-carbonyl)-5-oxodecahydro-1H-cyclopropa[d]pyrrolo[1,2-a]azocin-6-yl)carbamoyl)benzo[b]thiophen-5-yl)methyl)(phenoxy)phosphoryl)-L-alaninate] reads 100 to 1000 nM; that for `Cc1ccncc1C1CN(C(=O)[C@@H]2CC[C@@H]3C[C@H]4C[C@H]4C[C@H](NC(=O)c4cc5cc(C(F)P(=O)(N[C@@H](C)C(=O)OCC(C)C)Oc6ccccc6)ccc5s4)C(=O)N32)C1` (stereo partly drawn) [Compound 374, isobutyl ((fluoro(2-(((3S,6S,7aS,8aR,9aR)-3-(3-(4-methylpyridin-3-yl)azetidine-1-carbonyl)-5-oxodecahydro-1H-cyclopropa[d]pyrrolo[1,2-a]azocin-6-yl)carbamoyl)benzo[b]thiophen-5-yl)methyl)(phenoxy)phosphoryl)-L-alaninate], < 100 nM.
Turning to `CCCOC(=O)[C@H](C)N[P@@](=O)(Oc1ccccc1)[C@H](F)c1ccc2sc(C(=O)N[C@H]3C[C@H]4C[C@H]4C[C@H]4CC[C@@H](C(=O)N5CC(c6cnccc6N(C)C)C5)N4C3=O)cc2c1` [Compound 398, propyl((R)-((S)-(2-(((3S,6S,7aR,8aS,9aR)-3-(3-(4-(dimethylamino)pyridin-3-yl)azetidine-1-carbonyl)-5-oxodecahydro-1H-cyclopropa[d]pyrrolo[1,2-a]azocin-6-yl)carbamoyl)benzo[b]thiophen-5-yl)fluoromethyl)(phenoxy)phosphoryl)-L-ananinate], the IC50 is < 100 nM.
On the same count and under the same terms, the result for `CCCOC(=O)[C@H](C)N[P@@](=O)(Oc1ccccc1)[C@H](F)c1ccc2sc(C(=O)N[C@H]3C[C@H]4C[C@H]4C[C@H]4CC[C@@H](C(=O)N5CC(c6cnccc6N(C)C)C5)N4C3=O)cc2c1` [Compound 399] reads < 100 nM.
Same read-out and setting: the result for `CCCOC(=O)[C@H](C)N[P@@](=O)(Oc1ccccc1)[C@@H](F)c1ccc2sc(C(=O)N[C@H]3C[C@@H]4C[C@@H]4C[C@H]4CC[C@@H](C(=O)N5CC(c6cnccc6N(C)C)C5)N4C3=O)cc2c1` [Compound 414, propyl((S)-((R)-(2-(((3S,6S,7aS,8aR,9aR)-3-(3-(4-(dimethylamino)pyridin-3-yl)azetidine-1-carbnyl)-5-oxodecahydro-1H-cyclopropa[d]pyrrolo[1,2-a]azocin-6-yl)carbamoyl)benzo[b]thiophen-5-yl)fluoromethyl)(phenoxy)phosphoryl)-L-alaninate] reads < 100 nM.

The values are drawn from US20250215030A1, “STAT MODULATORS AND USES THEREOF” (Recludix Pharma, Inc., priority 2022, published 2025).
